# Reference: patent publication US20250241878A1, “TYROSINE AND RESVERATROL DERIVATIVES AS NOVEL MODULATORS OF CELLULAR SERINE ADP-RIBOSYLATION” (UNIVERSITY OF SOUTH CAROLINA, priority 2022, published 2025)
# Legend:
# [1] = test system: association of raptor with Rab7a; assay: Raptor / Rab7a immunoprecipitation; type: cell-based, rat
# From the text: FIG. 19C presents cis-RSV-mediated recruitment of raptor to Rab7a-coated late endosomes.
# monosomes = assay: Monosome formation in cortical neurons; type: cell-based, rat; details: compound alone
# cortical neurons [2] = assay: DNA fiber analysis (CIdU incorporation); type: cell-based, rat
# Description: Molecular combing was performed using the FiberComb® Molecular Combing System (Genomic Vision) with a constant stretching factor of 2 kb/μm using […] coverslips (20×20 mm; Genomic Vision). […] The coverslips were then washed with PBS, followed by serial ethanol dehydration (70%-100%). Following two 1×PBS washes, the coverslips were blocked in 3% BSA/1×PBS for 30 min followed by incubation with α-BrdU (for CIdU) (BD [347,580]) (1:100) and ssDNA antibody (MilliporeTM MAB3034) (1:100), for 2 hr at 37° C. After three PBST washes, secondary antibody incubation was done using α-mouse Alexa Fluor® 594 and α-rat Alexa Fluor® 488 (1:500) for 1 hr at 37° C. Coverslips were washed three times with 1×PBST, dehydrated and mounted on slides with mounting media. The stained DNA fibers were visualized using a fluorescence microscope (EVOS FL, Thermo FisherTM Scientific). Analysis was performed in ImageJ by counting the total ssDNA and the CIdU labeled fibers. For each treatment condition, 300 fibers were counted, and the average ratio of CIdU incorporation for ssDNA fibers per condition was used for final representation.
# cortical neurons [3] = assay: Neurite degeneration (MAP2 staining); type: cell-based, rat; details: agent alone
# Description: The neurite degeneration index was calculated. Samples were imaged using ImageXpress® Micro 4 at a magnification of 10× to capture the entire field of interest. The samples analyzed for neurite degeneration were stained using the standard immunofluorescence procedure with MAP2 (Alexa Fluor® 647) for neurites and DAPI staining for the nucleus. Neurite degeneration was quantified using 5-6 regions of interest of equal sizes from each treatment condition. The analysis of neurite degeneration was done using ImageJ. The fluorescent images for MAP2 staining were binarized, so that pixel intensity of regions corresponding to neurite staining was converted to black, and all other regions were converted to white. Healthy intact neurites show a continuous tract, whereas degenerated axons have a particulate structure due to fragmentation or beading. To detect degenerated neurites, the particle analyzer module of ImageJ was used. The percentage of the area of the small fragments or particles (size=3-10 μm^2) to the intact neurites (size >25 μm^2) with information derived from the binary images was calculated. A degeneration index (DI) was calculated as the fragmented neurite area ratio over the intact neurite area.
# PARP1 = assay: Auto-PARylation of PARP1 immunoblot; type: cell-based, rat
# global protein synthesis = assay: Puromycin incorporation assay; type: cell-based, rat; details: compound alone
# Description: Cultured neurons (DIV 9-10) were washed once with cold 1×PBS and lysed in cell lysis buffer (20 mM Tris-HCl (pH 7.5), 150 mM NaCl, 1 mM Na2EDTA, 1 mM EGTA, 1% Triton™, 2.5 mM sodium pyrophosphate, 1 mM beta-glycerophosphate, 1 mM Na3VO4, 1 μg/ml leupeptin supplemented with protease inhibitor). The lysates were centrifuged at 10,000 RPM for 15 mins at 4° C. to separate the chromatin-bound and soluble fractions. Lysates were quantified using Bio-Rad™ Protein Assay and equal amounts of protein were loaded onto a 4 to 12% gradient gel (Invitrogen™ NuPAGE™). Protein was transferred from the gel to 0.2 μm NC membranes at 25 V for 10 mins using transfer stacks (iBlot™ 2-Invitrogen™) and blocked with 5% non-fat milk in TBST (10 mM Tris-HCl pH 8.0, 150 mM NaCl, 0.01% Tween-20) for 1 hr before application of primary antibodies. Primary and secondary antibodies were incubated overnight at 4° C. and for 1 hr at room temperature, respectively. Immobilon® ECL Ultra Western HRP Substrate (WBULS0500, Millipore™) and a luminescent image analyzer (ChemiDoc™ Imaging System, Bio-Rad™) were used to detect proteins. Quantification of western blots was done using ImageJ (Version 1.53c).
# AcK56-H3 = details: humans, 500 mg/day dosing; cited from earlier work
structure (smiles),measurement,setting,value
"Oc1ccc(/C=C\c2cc(O)cc(O)c2)cc1 [cis-RSV, cis-resveratrol]",association of raptor with Rab7a,[1],increases the association of raptor with Rab7a
same,monosome formation,monosomes,stimulate the formation of monosomes
same,reduction of CIdU incorporation compared to control,cortical neurons [2]; after cis-RSV treatment,15-20%
"N[C@@H](Cc1ccc(O)cc1)C(=O)O [tyrosine, L-tyrosine]",neurite degeneration,cortical neurons [3],did not induce neurite degeneration
"Oc1ccc(/C=C/c2cc(O)cc(O)c2)cc1 [trans-RSV, trans-resveratrol]",auto-PARylation of PARP1,PARP1; higher concentrations of trans-RSV (≥25 mM),inhibit the auto-PARylation of PARP1
same,auto-PARylation of PARP1,"PARP1; low concentration of trans-RSV, converted to cis-RSV in solution",stimulates the auto-PARylation of PARP1
same,incorporation of nucleoside analog CIdU into DNA fibers,cortical neurons [2]; compound alone,prevented the incorporation of the nucleoside analog CIdU into DNA fibers
same,global protein synthesis (puromycin incorporation),global protein synthesis,inhibited global protein synthesis
same,acetylation of H3 at lysine 56 (AcK56-H3),AcK56-H3,inhibited the acetylation of H3 at lysine 56
